Test system: patients with steroid-resistant UC
Assay: Mayo endoscopy subscore (MES), phase-2a clinical trial
Type: in vivo, Japanese patients
Conditions: mean ± SD
Source text: Patients had to meet all criteria, namely, a Mayo score of 6 or more, a rectal bleeding subscore of at least 1, and Mayo endoscopy subscore (MES) of at least 2, at entry. Main exclusion criteria were as follows: patients with fulminant UC, patients with precancerous lesion in the colon, medication history of biologics within the last 3 months, patients with malignancy or any history of malignancy, and patients with active infection. We excluded patients with a systolic blood pressure under 90 mmHg and a pulse rate under 45 bpm for safety reasons due to the vasodilatory effect of AM. All patients provided written informed consent for all study-related procedures and were requested to be hospitalized for 2 weeks.
Patients were enrolled after confirmation of steroid-resistance defined as at least daily treatment with 30 mg or more of prednisolone. Screening tests including measurements of vital signs, blood and urine examinations, as well as a 12-lead electrocardiography (ECG), were conducted within 2 weeks prior to administration. Demographic data and disease characteristics including endoscopic disease activity of patients were also collected before randomization. Endoscopic subscores were assessed by on-site investigators and were not subjected to central review. Clinical disease activity was assessed by expert doctors according to the Mayo score and Lichtiger index. Stool samples were collected before administration of the investigational drug and after 2 weeks of treatment initiation. Measurements of fecal calprotectin and […] (FITs) were performed by a commercially available laboratory testing service (BML, Tokyo, Japan) in compliance with GCP. Additionally, measurements of complement components including CH50, C1q, C3, and C4 and evaluation of the absolute number of hematopoietic stem cells in the peripheral blood were performed before and after 2, 4, and 8 weeks by other laboratory testing services (SRL medisearch, Tokyo, Japan and LSI medience, Tokyo, Japan, respectively). The absolute number of hematopoietic stem cells in the peripheral blood was measured as CD34-positive cells using CD45FITC/CD34PE, 7AAD kit (Becton Dickinson Immunocytometry System, USA) and flow cytometry.
After hospitalization, patients received a continuous infusion of the assigned drug for 8 h per day for a total of 14 days. After the final administration of the investigational drug, patients were subjected to safety examinations and then discharged. But, if necessary due to disease activity, continuous hospitalization was allowed. Patients were requested to make an office visit at 4 and 8 weeks. Evaluations of their Mayo scores including endoscopic examinations were done at 2 and 8 weeks, whereas evaluation of the Lichtiger index was done at 2, 4, and 8 weeks. The dose of concomitant steroid was maintained for 2 weeks after drug administration, and then, a reduction in the steroid dose was allowed depending on the disease condition. Changes to the doses of other drugs, such as aminosalicylic acid, were prohibited throughout the trial.
All data were collected at each institute from March 2017 to April 2019. The primary endpoint was the change in the Mayo scores at 2 weeks. Secondary endpoints included the change in the Mayo scores at 8 weeks and the rate of clinical remission at 2 and 8 weeks, defined as a Mayo score 0; the response rate of the Mayo scores at 2 and 8 weeks, defined as an improvement of a 3-point or more decrease or at least a 30% decrease from baseline; the changes in MES at 2 and 8 weeks; the changes in the Lichtiger index at 2, 4, and 8 weeks; the changes in fecal calprotectin and FIT at 2 weeks; and finally, the changes in the given dose of steroid.
The significant level for each test was 5%. […] All data are shown as mean ± standard deviation (SD).

SMILES: CC[C@H](C)[C@H](NC(=O)[C@H](CCC(N)=O)NC(=O)[C@H](Cc1c[nH]cn1)NC(=O)[C@H](C)NC(=O)[C@H](CC(C)C)NC(=O)[C@H](CCCCN)NC(=O)[C@H](CCC(N)=O)NC(=O)[C@@H](NC(=O)[C@@H](NC(=O)[C@@H]1CSSC[C@H](NC(=O)CNC(=O)[C@H](Cc2ccccc2)NC(=O)[C@H](CO)NC(=O)[C@H](CCCNC(=N)N)NC(=O)[C@H](CC(C)C)NC(=O)CNC(=O)[C@H](CCC(N)=O)NC(=O)[C@H](Cc2ccccc2)NC(=O)[C@H](CC(N)=O)NC(=O)[C@H](CC(N)=O)NC(=O)[C@H](CCSC)NC(=O)[C@H](CO)NC(=O)[C@H](CCC(N)=O)NC(=O)[C@H](CCCNC(=N)N)NC(=O)[C@@H](N)Cc2ccc(O)cc2)C(=O)N[C@@H](CCCNC(=N)N)C(=O)N[C@@H](Cc2ccccc2)C(=O)NCC(=O)N[C@@H]([C@@H](C)O)C(=O)N1)[C@@H](C)O)C(C)C)C(=O)N[C@@H](Cc1ccc(O)cc1)C(=O)N[C@@H](CCC(N)=O)C(=O)N[C@@H](Cc1ccccc1)C(=O)N[C@H](C(=O)N[C@@H](CC(=O)O)C(=O)N[C@@H](CCCCN)C(=O)N[C@@H](CC(=O)O)C(=O)N[C@@H](CCCCN)C(=O)N[C@@H](CC(=O)O)C(=O)N[C@@H](CC(N)=O)C(=O)N[C@H](C(=O)N[C@@H](C)C(=O)N1CCC[C@H]1C(=O)N[C@@H](CCCNC(=N)N)C(=O)N[C@@H](CO)C(=O)N[C@@H](CCCCN)C(=O)N[C@H](C(=O)N[C@@H](CO)C(=O)N1CCC[C@H]1C(=O)N[C@@H](CCC(N)=O)C(=O)NCC(=O)N[C@@H](Cc1ccc(O)cc1)C(N)=O)[C@@H](C)CC)C(C)C)[C@@H](C)O [Adrenomedullin]
- MES (Mayo endoscopic sub-score) (AM 5 ng/kg/min infusion 8 h/day x 14 days, 2 week, n = 4, baseline 2.3 ± 0.5, placebo 2.0 ± 0.6): 1.5 ± 0.6
- Change of MES (AM 5 ng/kg/min infusion 8 h/day x 14 days, 2 week, n = 4, placebo -0.5 ± 0.8, P = 0.67 vs. placebo): -0.8 ± 1.0
- MES (Mayo endoscopic sub-score) (AM 5 ng/kg/min infusion 8 h/day x 14 days, 8 week, n = 3, placebo 2.0 ± 1.4 (n = 2)): 0.7 ± 0.6
- Change of MES (AM 5 ng/kg/min infusion 8 h/day x 14 days, 8 week, n = 3, placebo -0.5 ± 2.1 (n = 2), P = 0.47 vs. placebo): -1.7 ± 1.2
- MES (Mayo endoscopic sub-score) (AM 10 ng/kg/min infusion 8 h/day x 14 days, 2 week, n = 5, baseline 2.2 ± 0.4, placebo 2.0 ± 0.6): 2.2 ± 0.8
- Change of MES (AM 10 ng/kg/min infusion 8 h/day x 14 days, 2 week, n = 5, placebo -0.5 ± 0.8, P = 0.32 vs. placebo): 0.0 ± 0.7
- MES (Mayo endoscopic sub-score) (AM 10 ng/kg/min infusion 8 h/day x 14 days, 8 week, n = 3, placebo 2.0 ± 1.4 (n = 2)): 2.0 ± 0.0
- Change of MES (AM 10 ng/kg/min infusion 8 h/day x 14 days, 8 week, n = 3, placebo -0.5 ± 2.1 (n = 2), P = 0.69 vs. placebo): 0.0 ± 0.0
- MES (Mayo endoscopic sub-score) (AM 15 ng/kg/min infusion 8 h/day x 14 days, 2 week, n = 6, baseline 2.5 ± 0.5, placebo 2.0 ± 0.6): 2.3 ± 1.0
- Change of MES (AM 15 ng/kg/min infusion 8 h/day x 14 days, 2 week, n = 6, placebo -0.5 ± 0.8, P = 0.49 vs. placebo): -0.2 ± 0.8
- MES (Mayo endoscopic sub-score) (AM 15 ng/kg/min infusion 8 h/day x 14 days, 8 week, n = 3, placebo 2.0 ± 1.4 (n = 2)): 0.0 ± 0.0
- Change of MES (AM 15 ng/kg/min infusion 8 h/day x 14 days, 8 week, n = 3, placebo -0.5 ± 2.1 (n = 2), P = 0.27 vs. placebo): -2.0 ± 0.0

Source: PMC7862507, “Adrenomedullin for steroid-resistant ulcerative colitis: a randomized, double-blind, placebo-controlled phase-2a clinical trial” (Journal of Gastroenterology, 2020)
